One assay has as its target Mcl-1 (Homo sapiens (Human), UniProt Q07820). The assay is described as follows: Fluorescence polarization anisotropy (FPA) competition assay, FITC-Bak or FITC-Bim BH3 peptide. As to conditions: read-out: Ki for Inhibition of Mcl-1 by FPA assay. In kind it is binding. (Fluorescence polarisation rises when a labelled molecule tumbles more slowly, as on binding a larger partner.)

Assay [1] deals with H929 human cancer cell lines. The assay is described as follows: Cellular viability / proliferation (Cell TiterGlo, 72 h). In kind it is cell-based. The method, boiled down:
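Top dose 50 μM, serially diluted 2-fold, applied one day after seeding (1,000 cells/well, 10% FBS), DMSO below 1%.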
For orientation: Cellular ATP, detected with luciferase, serves as a proxy for viable cell number.

Setting [2] is: Homo sapiens, NCI-H929, 72 h, read-out: GI50 on cellular proliferation of H929 human cancer cell lines, H929 cells, 72 h, Cell TiterGlo, 10% FBS.

Where two headings read alike, the source gives them in different places.

The term Ki denotes the equilibrium dissociation constant of an inhibitor or competing ligand from its target.

Chain of Mcl-1 (Q07820 172-327): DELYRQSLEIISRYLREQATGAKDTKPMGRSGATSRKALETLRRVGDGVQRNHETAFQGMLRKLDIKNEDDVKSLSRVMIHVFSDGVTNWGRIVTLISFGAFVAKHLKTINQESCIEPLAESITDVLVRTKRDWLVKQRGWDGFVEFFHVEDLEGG

On to `Cc1cc(N2C[C@@H](C)n3c(c(CCCOc4cc(C)c(Cl)c(C)c4)c4ccc(Cl)c(-c5c(C)nc(CN6CCN(C)CC6)nc5C)c43)C2=O)c2c(c1)cc(C(=O)O)n2C` [Example 426, (R)-7-(7-Chloro-10-(3-(4-chloro-3,5-dimethylphenoxy)propyl)-6-(4,6-dimethyl-2-((4-methylpiperazin-1-yl)methyl)pyrimidin-5-yl)-4-methyl-1-oxo-3,4-dihydropyrazino[1,2-a]indol-2(1H)-yl)-1,5-dimethyl-1H-indole-2-carboxylic acid], for which the Ki at Mcl-1 was less than 0.001 µM. Also, the GI50 in assay [1] (setting [2]) was 0.25 µM.
For `Cc1cc(OCCCc2c3n(c4c(-c5c(C)nn(C)c5C)c(Cl)ccc24)CCCN(c2nn(CCN4CCOCC4)c4cc(C(=O)O)ccc24)C3=O)cc(C)c1Cl` [Example 49, 3-(8-chloro-11-(3-(4-chloro-3,5-dimethylphenoxy)propyl)-1-oxo-7-(1,3,5-trimethyl-1H-pyrazol-4-yl)-4,5-dihydro-1H-[1,4]diazepino[1,2-a]indol-2(3H)-yl)-1-(2-morpholinoethyl)-1H-indazole-6-carboxylic acid], on Mcl-1, the inhibition constant (Ki) was less than 0.001 µM. In assay [1] (setting [2]), the GI50 was 2.6 µM.
`Cc1cc(OCCCc2c3n(c4c(-c5c(C)nn(C)c5C)c(Cl)ccc24)[C@H](C)CN(c2cn(C)c4c(-c5nnnn5C)cccc24)C3=O)cc(C)c1Cl` [Example 372, (R)-7-Chloro-10-(3-(4-chloro-3,5-dimethylphenoxy)propyl)-4-methyl-2-(1-methyl-7-(1-methyl-1H-tetrazol-5-yl)-1H-indol-3-yl)-6-(1,3,5-trimethyl-1H-pyrazol-4-yl)-3,4-dihydropyrazino[1,2-a]indol-1(2H)-one]: the inhibitory constant (Ki) at Mcl-1 was determined as 0.0012 µM. In addition, the GI50 in assay [1] (setting [2]) amounted to 2 µM.
For the compound `Cc1cc(OCCCc2c3n(c4c(-c5c(C)n[nH]c5C)c(Cl)ccc24)CCCN(c2cc(C(=O)O)c4cnn(C)c4c2)C3=O)cc(C)c1Cl` [Example 95, 6-(8-Chloro-1-(3-(4-chloro-3,5-dimethylphenoxy)propyl)-7-(3,5-dimethyl-1H-pyrazol-4-yl)-1-oxo-4,5-dihydro-1H-[1,4]diazepino[1,2-a]indol-2(3H)-yl)-1-methyl-1H-indazole-4-carboxylic acid], the Ki at Mcl-1 was less than 0.001 µM. In addition, the GI50 in assay [1] (H929 cells, 72 h, Cell TiterGlo, 10% FBS, read-out: GI50 on cellular proliferation of H929 human cancer cell lines) stood at 10 µM.
Take `Cc1cc(OCCCc2c3n(c4c(-c5c(C)nn(C)c5C)c(Cl)ccc24)[C@H](C)CN(c2cc(C(=O)O)cc4[nH]ccc24)C3=O)cc(C)c1Cl` [Example 100, (R)-4-(7-chloro-10-(3-(4-chloro-3,5-dimethylphenoxy)propyl)-4-methyl-1-oxo-6-(1,3,5-trimethyl-1H-pyrazol-4-yl)-3,4-dihydropyrazino[1,2-a]indol-2(1H)-yl)-1H-indole-6-carboxylic acid]: at Mcl-1, the Ki was less than 0.001 µM. Also, the GI50 in assay [1] (setting [2]) stood at 5.8 µM.
With `Cc1cc(OCCCc2c3n(c4c(-c5c(C)nn(CCN6CCCC6)c5C)c(Cl)ccc24)[C@H](C)CN(c2cccc4c2cc(C(=O)O)n4C)C3=O)cc(C)c1Cl` [Example 318, (R)-4-(7-Chloro-10-(3-(4-chloro-3,5-dimethylphenoxy)propyl)-6-(3,5-dimethyl-1-(2-(pyrrolidin-1-yl)ethyl)-1H-pyrazol-4-yl)-4-methyl-1-oxo-3,4-dihydropyrazino[1,2-a]indol-2(1H)-yl)-1-methyl-1H-indole-2-carboxylic acid], the inhibition constant (Ki) on Mcl-1 is 0.0015 µM. Also, the GI50 in assay [1] (setting [2]) is 0.82 µM.
For `Cc1cc(OCCCc2c3n(c4c(-c5c(C)nn(C)c5C)c(Cl)ccc24)[C@H](C)CN(c2cn(CCN(C)C)c4cc(C(=O)O)ccc24)C3=O)cc(C)c1Cl` [Example 340, (R)-3-(7-Chloro-10-(3-(4-chloro-3,5-dimethylphenoxy)propyl)-4-methyl-1-oxo-6-(1,3,5-trimethyl-1H-pyrazol-4-yl)-3,4-dihydropyrazino[1,2-a]indol-2(1H)-yl)-1-(2-(dimethylamino)ethyl)-1H-indole-6-carboxylic acid], the Ki at Mcl-1 amounted to 0.0044 µM. In assay [1] (setting [2]), the GI50 worked out at 1.8 µM.
With `Cc1cc(OCCCc2c3n(c4c(-c5c(C)nn(C)c5C)c(Cl)ccc24)[C@H](C)CN(c2cc(C(=O)O)cc4c2cc(C(F)(F)F)n4C)C3=O)cc(C)c1Cl` [Example 211, 4-[(4R)-7-chloro-10-[3-(4-chloro-3,5-dimethyl-phenoxy)propyl]-4-methyl-1-oxo-6-(1,3,5-trimethylpyrazol-4-yl)-3,4-dihydropyrazino[1,2-a]indol-2-yl]-1-methyl-2-(trifluoromethyl)indole-6-carboxylic acid], the inhibition constant Ki on Mcl-1 worked out at 0.0031 µM. The GI50 in assay [1] (setting [2]) came to 11 µM.
`Cc1cc(OCCCc2c3n(c4c(-c5c(C)nn(C)c5C)c(Cl)ccc24)[C@H](C)CN(c2cn(C)c4ccc(C(=O)NCc5ccncc5)cc24)C3=O)cc(C)c1Cl` [Example 284, 3-[(4R)-7-chloro-10-[3-(4-chloro-3,5-dimethyl-phenoxy)propyl]-4-methyl-1-oxo-6-(1,3,5-trimethylpyrazol-4-yl)-3,4-dihydropyrazino[1,2-a]indol-2-yl]-1-methyl-N-(4-pyridylmethyl)indole-5-carboxamide]: the inhibitory constant (Ki) on Mcl-1 was 0.0036 µM. Moreover, the GI50 in assay [1] (setting [2]) worked out at 1.5 µM.
In the same order, the values of `Cc1cc(OCCCc2c3n(c4c(-c5c(C)ncnc5C)c(Cl)ccc24)CCCN(c2cc(C(=O)O)c4cnn(C)c4c2)C3=O)cc(C)c1Cl` [Example 155, 6-[8-Chloro-11-[3-(4-chloro-3,5-dimethyl-phenoxy)propyl]-7-(4,6-dimethylpyrimidin-5-yl)-1-oxo-4,5-dihydro-3H-[1,4]diazepino[1,2-a]indol-2-yl]-1-methyl-indazole-4-carboxylic acid] are less than 0.001 µM and 1.4 µM.
For `Cc1cc(OCCCc2c3n(c4c(-c5c(C)nn(C)c5C)c(Cl)ccc24)[C@H](C)CN(c2ccc(C(=O)O)c4ccccc24)C3=O)cc(C)c1Cl` [Example 189, (R)-4-(7-Chloro-10-(3-(4-chloro-3,5-dimethylphenoxy)propyl)-4-methyl-1-oxo-6-(1,3,5-trimethyl-1H-pyrazol-4-yl)-3,4-dihydropyrazino[1,2-a]indol-2(1H)-yl)-1-naphthoic acid], the Ki on Mcl-1 worked out at 0.0012 µM. Besides, the GI50 in assay [1] (setting [2]) is 0.92 µM.
Turning to `Cc1cc(OCCCc2c3n(c4c(-c5c(C)nn(C)c5C)c(Cl)ccc24)[C@H](C)CN(c2cn(C)c4c(C#N)cc(C(=O)O)cc24)C3=O)cc(C)c1Cl` [Example 244, (R)-3-(7-Chloro-10-(3-(4-chloro-3,5-dimethylphenoxy)propyl)-4-methyl-1-oxo-6-(1,3,5-trimethyl-1H-pyrazol-4-yl)-3,4-dihydropyrazino[1,2-a]indol-2(1H)-yl)-7-cyano-1-methyl-1H-indole-5-carboxylic acid], the Ki on Mcl-1 is less than 0.001 µM. In assay [1] (setting [2]), the GI50 is 0.4 µM.
In the case of `COc1cc(C(=O)O)nc2c(N3C[C@@H](C)n4c(c(CCCOc5cc(C)c(Cl)c(C)c5)c5ccc(Cl)c(-c6c(C)nn(C)c6C)c54)C3=O)cccc12` [Example 239, (R)-8-(7-Chloro-10-(3-(4-chloro-3,5-dimethylphenoxy)propyl)-4-methyl-1-oxo-6-(1,3,5-trimethyl-1H-pyrazol-4-yl)-3,4-dihydropyrazino[1,2-a]indol-2(1H)-yl)-4-methoxyquinoline-2-carboxylic acid], the Ki on Mcl-1 is less than 0.001 µM. For the same compound, the GI50 in assay [1] (setting [2]) is 1.8 µM.
For the compound `Cc1cc(OCCCc2c3n(c4c(-c5c(C)nn(C)c5C)c(Cl)ccc24)[C@H](C)CN(c2cn(C)c4ccc(C(=O)NNc5ccccc5)cc24)C3=O)cc(C)c1Cl` [Example 427, (R)-3-(7-Chloro-10-(3-(4-chloro-3,5-dimethylphenoxy)propyl)-4-methyl-1-oxo-6-(1,3,5-trimethyl-1H-pyrazol-4-yl)-3,4-dihydropyrazino[1,2-a]indol-2(1H)-yl)-1-methyl-N′-phenyl-1H-indole-5-carbohydrazide], the Ki at Mcl-1 was 0.0012 µM. The GI50 in assay [1] (setting [2]) worked out at 0.49 µM.
As to `Cc1cc(OCCCc2c3n(c4c(-c5c(C)nn(C)c5C)c(Cl)ccc24)[C@H](C)CN(c2cccc4cc5n(c24)CCN(CCC(C)C)C5=O)C3=O)cc(C)c1Cl` [Example 229, (4R)-7-chloro-10-[3-(4-chloro-3,5-dimethyl-phenoxy)propyl]-2-(2-isopentyl-1-oxo-3,4-dihydropyrazino[1,2-a]indol-6-yl)-4-methyl-6-(1,3,5-trimethylpyrazol-4-yl)-3,4-dihydropyrazino[1,2-a]indol-1-one], the inhibition constant Ki on Mcl-1 is 0.0037 µM. The GI50 in assay [1] (setting [2]) was determined as 9.3 µM.
On to `COc1cc(N2C[C@@H](C)n3c(c(CCCOc4cc(C)c(Cl)c(C)c4)c4ccc(Cl)c(-c5c(C)nn(C)c5C)c43)C2=O)c2c(c1)c(C(=O)O)cn2C` [Example 436, (R)-7-(7-Chloro-10-(3-(4-chloro-3,5-dimethylphenoxy)propyl)-4-methyl-1-oxo-6-(1,3,5-trimethyl-1H-pyrazol-4-yl)-3,4-dihydropyrazino[1,2-a]indol-2(1H)-yl)-5-methoxy-1-methyl-1H-indole-3-carboxylic acid], for which the Ki at Mcl-1 was 0.0021 µM. Besides, in assay [1] (setting [2]), the GI50 worked out at 0.51 µM.
As for `Cc1cc(N2C[C@@H](C)n3c(c(CCCOc4cc(C)c(Cl)c(C)c4)c4ccc(Cl)c(-c5c(C)ncnc5C)c43)C2=O)c2c(c1)cc(C(=O)O)n2C` [Example 272, 7-[(4R)-7-chloro-10-[3-(4-chloro-3,5-dimethyl-phenoxy)propyl]-6-(4,6-dimethylpyrimidin-5-yl)-4-methyl-1-oxo-3,4-dihydropyrazino[1,2-a]indol-2-yl]-1,5-dimethyl-indole-2-carboxylic acid], the inhibition constant (Ki) at Mcl-1 was less than 0.001 µM. Also, in assay [1] (setting [2]), the GI50 was determined as 0.21 µM.
On to `CC[C@@H]1Cn2c(c(CCCOc3cc(C)c(Cl)c(C)c3)c3ccc(Cl)c(-c4c(C)nn(C)c4C)c32)C(=O)N1c1ccc(C(=O)O)c2ncccc12` [Example 19, (R)-5-(7-chloro-10-(3-(4-chloro-3,5-dimethylphenoxy)propyl)-3-ethyl-1-oxo-6-(1,3,5-trimethyl-1H-pyrazol-4-yl)-3,4-dihydropyrazino[1,2-a]indol-2(1H)-yl)quinoline-8-carboxylic acid], for which the Ki at Mcl-1 is 0.0019 µM. The GI50 in assay [1] (setting [2]) amounted to 4.1 µM.
